Patent US8173689B2 (Novartis AG, priority 2006, dated 2012)
Where two headings read alike, the source gives them in different places.

Experiments:
[1] = system: MNFS60 (murine AML cells); assay: Cell viability assay in MCSF dependent MNFS60 cells (Cell Titer Glo); assay type: cell-based; settings: Mus musculus, tested at about 1 μM, read-out: M-NFS-60 CP percent inhibition
Summary of the method: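 EC50 values reflect MCSF-driven (10 ng/ml final) proliferation over 72 hrs at 37° C., read by CellTiter-Glo. Each condition was run in triplicate.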

kinase domain of cKIT = target: T1, kinase domain of cKIT (Homo sapiens, UniProt P10721); assay: Inhibition of cKIT kinase signaling in an in vitro biochemical assay (alphascreen); settings: tested at about 1 μM, read-out: cKit percent inhibition
T1 construct: The kinase domain of cKIT was assayed in 50 mM Hepes; purchased Upstate 14-559
T1 sequence (P10721 589-937 limits assumed): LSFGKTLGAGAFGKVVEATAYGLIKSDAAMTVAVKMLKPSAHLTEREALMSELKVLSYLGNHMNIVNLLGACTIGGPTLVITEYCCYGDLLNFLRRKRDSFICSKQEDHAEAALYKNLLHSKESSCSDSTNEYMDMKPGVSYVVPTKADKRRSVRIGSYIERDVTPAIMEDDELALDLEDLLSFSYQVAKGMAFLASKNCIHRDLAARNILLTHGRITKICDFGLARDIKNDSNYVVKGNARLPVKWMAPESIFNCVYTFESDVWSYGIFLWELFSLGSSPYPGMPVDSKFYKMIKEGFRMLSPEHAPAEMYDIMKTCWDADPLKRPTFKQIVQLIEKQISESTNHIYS

[2] = target: T2, cytoplasmic domain of the human CSF-1R (Homo sapiens, UniProt P07333); assay: In vitro kinase assay for colony stimulating factor-1 receptor (AlphaScreen); assay type: biochemical; settings: tested at about 1 μM, read-out: CSF-1R percent inhibition
T2 construct: Recombinant protein corresponding to the cytoplasmic domain of the human CSF-1R; purchased Invitrogen Corporation, Carlsbad, Calif; PV3249
T2 sequence (P07333 539-972 limits assumed): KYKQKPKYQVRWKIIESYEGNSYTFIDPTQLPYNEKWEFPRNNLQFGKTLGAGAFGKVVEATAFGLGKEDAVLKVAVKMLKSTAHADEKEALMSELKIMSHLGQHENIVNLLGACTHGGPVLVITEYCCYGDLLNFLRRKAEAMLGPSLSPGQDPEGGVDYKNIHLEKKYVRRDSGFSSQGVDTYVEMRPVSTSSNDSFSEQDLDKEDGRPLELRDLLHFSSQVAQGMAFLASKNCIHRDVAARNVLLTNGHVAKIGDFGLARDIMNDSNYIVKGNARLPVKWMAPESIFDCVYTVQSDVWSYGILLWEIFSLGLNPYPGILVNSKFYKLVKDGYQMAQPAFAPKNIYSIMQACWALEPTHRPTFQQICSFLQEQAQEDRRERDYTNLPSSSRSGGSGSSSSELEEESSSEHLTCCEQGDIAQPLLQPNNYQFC
Summary of the method: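 4 nM enzyme, 1 μM ATP; buffer 50 mM Hepes pH 7.5, 5 mM MgCl2, 10 mM MnCl2, 1.0 mM DTT, 0.1% BSA, 0.01% Tween 80. Readout: AlphaScreen, PT66 acceptor/streptavidin donor, overnight.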

[3] = target: T3, full-length human CSF-1R receptor (Homo sapiens, UniProt P07333); assay: In vitro inhibition of CSF-1R receptor tyrosine phosphorylation in transfected HEK293H cells stimulated with MCSF; assay type: cell-based; settings: HEK293-H, tested at about 1 μM, read-out: pCSF1R percent inhibition
T3 construct: transfected with the full-length human CSF-1R receptor cloned in house; expressed in transfected cells; host or cells: HEK293H (Invitrogen Cat. #11631017)
T3 sequence (P07333 20-972): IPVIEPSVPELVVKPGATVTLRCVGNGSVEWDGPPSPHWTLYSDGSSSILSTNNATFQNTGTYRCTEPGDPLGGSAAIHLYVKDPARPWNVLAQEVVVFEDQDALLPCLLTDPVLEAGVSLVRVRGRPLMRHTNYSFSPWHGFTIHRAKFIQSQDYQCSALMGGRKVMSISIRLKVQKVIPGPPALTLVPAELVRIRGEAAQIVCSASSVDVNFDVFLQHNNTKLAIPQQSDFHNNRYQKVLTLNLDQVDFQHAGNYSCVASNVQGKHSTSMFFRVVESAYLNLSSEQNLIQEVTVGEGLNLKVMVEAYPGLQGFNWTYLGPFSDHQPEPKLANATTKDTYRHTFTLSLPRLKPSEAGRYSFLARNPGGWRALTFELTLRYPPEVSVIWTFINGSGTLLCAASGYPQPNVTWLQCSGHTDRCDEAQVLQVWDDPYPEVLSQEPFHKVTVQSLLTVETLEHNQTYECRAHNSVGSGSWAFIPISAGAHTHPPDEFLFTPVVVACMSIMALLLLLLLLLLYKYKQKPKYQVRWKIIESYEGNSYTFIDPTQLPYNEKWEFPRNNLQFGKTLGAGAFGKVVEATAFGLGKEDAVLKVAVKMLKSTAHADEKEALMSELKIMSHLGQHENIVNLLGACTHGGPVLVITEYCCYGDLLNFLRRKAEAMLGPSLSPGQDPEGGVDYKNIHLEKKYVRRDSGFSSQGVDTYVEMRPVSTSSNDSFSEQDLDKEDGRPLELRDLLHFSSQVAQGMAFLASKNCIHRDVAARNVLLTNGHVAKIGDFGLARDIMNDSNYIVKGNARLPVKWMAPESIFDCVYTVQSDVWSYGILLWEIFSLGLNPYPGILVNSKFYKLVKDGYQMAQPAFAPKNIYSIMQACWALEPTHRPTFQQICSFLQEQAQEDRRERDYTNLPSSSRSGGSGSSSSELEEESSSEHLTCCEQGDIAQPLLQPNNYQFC
Experimental: The lysate was then transferred to total CSF-1R antibody coated 96-well plates that had already been blocked with 3% Blocker A from Mesoscale discovery (MSD) for 2 hours and washed afterwards. Lysates were incubated overnight at 4° C. and the plates were then washed 4× with MSD Tris Wash Buffer. […] The plates were read on the Sector 6000 instrument (MSD). Raw data was imported in Abase and EC50s calculated with XL-fit data analysis software.

kinase domain of PDGFRβ = target: T4, kinase domain of PDGFRβ (Homo sapiens, UniProt P09619); assay: Inhibition of PDGFRb kinase signaling in an in vitro biochemical assay (alphascreen); settings: tested at about 1 μM, read-out: PDGFRβ percent inhibition
T4 construct: The kinase domain of PDGFRβ was assayed in 50 mM Hepes; purchased Invitrogen P3082
T4 sequence (P09619 600-962 limits assumed): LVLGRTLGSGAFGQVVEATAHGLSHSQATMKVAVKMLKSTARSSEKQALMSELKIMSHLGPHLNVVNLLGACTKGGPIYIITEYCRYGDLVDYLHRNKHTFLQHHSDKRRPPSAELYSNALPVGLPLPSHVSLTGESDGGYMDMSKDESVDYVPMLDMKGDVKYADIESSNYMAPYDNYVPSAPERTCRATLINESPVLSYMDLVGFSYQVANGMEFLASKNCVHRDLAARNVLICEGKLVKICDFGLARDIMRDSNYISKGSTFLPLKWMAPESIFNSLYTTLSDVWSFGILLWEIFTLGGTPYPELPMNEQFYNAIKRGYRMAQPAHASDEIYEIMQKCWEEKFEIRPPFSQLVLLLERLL

Row | SMILES | inhibition at 1 µM (kinase domain of cKIT) [%] | inhibition at 1 µM [2] [%] | inhibition at 1 µM ([3]; HEK293H cells) [%] | inhibition at 1 µM (kinase domain of PDGFRβ) [%] | inhibition at 1 µM (kinase domain of cKIT; compounds of Table 3) [%] | inhibition at 1 µM ([2]; compounds of Table 3) [%] | inhibition at 1 µM ([3]; compounds of Table 3) [%] | inhibition at 1 µM (kinase domain of PDGFRβ; compounds of Table 3) [%] | inhibition at 1 µM ([1]; MNFS60 cells) [%] | inhibition at 1 µM ([1]; compounds of Table 3) [%]
1 | CNC(=O)c1cc(Oc2ccc3nc(NCc4ccc(Cl)cc4Cl)sc3c2)ccn1 [Compound 130, 4-[2-(2,4-Dichloro-benzylamino)-benzothiazol-6-yloxy]-pyridine-2-carboxylic acid methylamide] | 87 | 99 | 85 | 25 |  |  |  |  | 72 | 
2 | CNC(=O)c1cc(Oc2ccc3nc(N[C@H](C)c4ccccc4)sc3c2)ccn1 [Compound 131, 4-[2-((R)-1-Phenyl-ethylamino)-benzothiazol-6-yloxy]-pyridine-2-carboxylic acid methylamide] | 96 | 99 | 98 | 55 |  |  |  |  | 100 | 
3 | CNC(=O)c1cc(Oc2ccc3nc(NCCc4ccccc4)sc3c2)ccn1 [Compound 133, 4-(2-Phenethylamino-benzo-thiazol-6-yloxy)-pyridine-2-carboxylic acid methylamide] | 53 | 99 | 92 | 3 |  |  |  |  | 45 | 
4 | CNC(=O)c1cc(Oc2ccc3nc(NCc4cccc(Cl)c4Cl)sc3c2)ccn1 [Compound 134, 4-[2-(2,3-Dichloro-benzylamino)-benzothiazol-6-yloxy]-pyridine-2-carboxylic acid methylamide] | 98 | 98 | 93 | 0 |  |  |  |  | 93 | 
5 | CNC(=O)c1cc(Oc2ccc3nc(NC4CCCC(C)C4)sc3c2)ccn1 (stereo not shown) [Compound 136, 4-[2-(3-Methyl-cyclohexyl-amino)-benzothiazol-6-yloxy]-pyridine-2-carboxylic acid methylamide] | 88 | 100 | 97 | 84 |  |  |  |  | 100 | 
6 | CNC(=O)c1cc(Oc2ccc3nc(N[C@H](C)C4CCCCC4)sc3c2)ccn1 [Compound 138, 4-[2-((R)-1-Cyclohexyl-ethylamino)-benzothiazol-6-yloxy]-pyridine-2-carboxylic acid methylamide] | 93 | 99 | 88 | 93 |  |  |  |  | 100 | 
7 | CNC(=O)c1cc(Oc2ccc3nc(NCc4ccncc4)sc3c2)ccn1 [Compound 139] |  |  |  |  | 24 | 100 | 88 | 19 |  | 46

Continued, in another order:

Row | inhibition at 1 µM (kinase domain of cKIT) [%] | inhibition at 1 µM [2] [%] | inhibition at 1 µM ([3]; HEK293H cells) [%] | inhibition at 1 µM (kinase domain of PDGFRβ) [%] | inhibition at 1 µM (kinase domain of cKIT; compounds of Table 3) [%] | inhibition at 1 µM ([2]; compounds of Table 3) [%] | inhibition at 1 µM ([3]; compounds of Table 3) [%] | inhibition at 1 µM (kinase domain of PDGFRβ; compounds of Table 3) [%] | SMILES | inhibition at 1 µM ([1]; MNFS60 cells) [%] | inhibition at 1 µM ([1]; compounds of Table 3) [%]
8 | 98 | 99 | 98 | 58 |  |  |  |  | CNC(=O)c1cc(Oc2ccc3nc(NCc4ccccc4OC)sc3c2)ccn1 [Compound 132, 4-[2-(2-Methoxy-benzylamino)-benzothiazol-6-yloxy]-pyridine-2-carboxylic acid methylamide] | 100 | 
9 | 68 | 100 | 91 | 20 |  |  |  |  | CNC(=O)c1cc(Oc2ccc3nc(NC4CCCCC4)sc3c2)ccn1 [Compound 135, 4-(2-Cyclohexylamino-benzothiazol-6-yloxy)-pyridine-2-carboxylic acid methylamide] | 96 | 
10 | 21 | 100 | 94 | 0 |  |  |  |  | CNC(=O)c1cc(Oc2ccc3nc(NCc4cc(F)ccc4F)sc3c2)ccn1 [Compound 139, 4-[2-(2,5-Difluoro-benzylamino)-benzothiazol-6-yloxy]-pyridine-2-carboxylic acid methylamide] | 48 | 
11 | 92 | 100 | 90 | 0 |  |  |  |  | CNC(=O)c1cc(Oc2ccc3nc(NCc4ccccc4F)sc3c2)ccn1 [Compound 140, 4-[2-(2-Fluoro-benzylamino)-benzothiazol-6-yloxy]-pyridine-2-carboxylic acid methylamide] | 52 | 
